Like-named read-outs stand apart in the source and are kept apart here.
Tests used:
[1] = Loss of WS-12 concentration on storage in polyolefin containers; format: physicochemical
Experimental: It was discovered that there is an inverse relationship between the crystallinity of the polyolefin and the amount of WS-12 absorbed into the polyolefin when the pharmaceutical composition is stored in contact with the polyolefin at elevated temperatures (e.g. 40° C.). Crystallinity was measured by determining the melting temperature of the polyolefin by DSC, with higher melting temperatures denoting greater crystallinity.
LDPE 1, LDPE 2, LDPE 3, LDPE 4, and LDPE 5 in Table 12 correspond to LDPEs from different suppliers. Melting point values of the polyolefins were experimentally determined by differential scanning calorimetry (DSC). The densities of the polyolefins were as provided by the manufacturer's product data sheet.

[2] = JECFA, cited from earlier work
[3] = WS-12 content in blow-fill-seal LDPE containers after curing at 40° C. and storage at 25° C.; format: physicochemical; conditions: Formulation 1 in LDPE BFS units; cured 10 days at 40° C., then stored at 25° C. over 140 days; FIG. 8
Experimental: The ‘curing’ technique, or process, described herein exploits the temperature dependence of WS-12 absorption into LDPE to yield a product that is stable when stored at 25° C. In some embodiments, the curing technique includes the following steps: (a) producing the BFS containers filled with an ophthalmic pharmaceutical composition provided herein; (b) storing the filled BFS containers at a first temperature (e.g. 40° C.) to drive WS-12 into the LDPE container with the aim of saturating the container walls with WS-12; and (c) subsequently storing the BFS containers at a second temperature (e.g., 25° C.) whereupon further loss of WS-12 to the container walls is stemmed due to the above described saturation process.
(99A long-term 25° C. trace). The first data point of each line represents the content of WS-12 in the BFS article after the curing period (e.g., the first temperature of storage). The amount of WS-12 lost to the LDPE increased as the duration of curing at 40° C. was increased from 1 day to 10 days. […] After a curing period of 10 days at 40° C. (black circles), the content of WS-12 in the BFS units stored at 25° C. was constant over a period of 140 days.

[4] = Chemical stability of WS-12 to typical drug stressors; format: physicochemical; conditions: typical drug stressors (acid, base, peroxide, heat, light)
[5] = Equilibrium solubility of WS-12 in compositions / evaluation of solubilizers (HPLC); format: physicochemical
Experimental: As explained above, WS-12 is insoluble in water. Regardless, it was necessary to identify excipients that would provide WS-12 with a solubility of about 200 μM (0.0058%) in an aqueous medium compatible with administration (e.g., topical administration) to a human (e.g., a human eye). Several solubilizers were evaluated, including PEG 400 (polyethylene glycol 400), KOLLIDON 30 (polyvinylpyrrolidone), propylene glycol, TWEEN 80 (polyoxyethylene (20) sorbitan monooleate), KOLLIPHOR® EL or KOLLIPHOR® ELP (polyoxyl 35 castor oil) and tyloxapol (ethylene oxide-formaldehyde-p-octylphenol copolymer).

For `COc1ccc(NC(=O)[C@@H]2C[C@H](C)CC[C@H]2C(C)C)cc1` [WS-12, (1R,2S,5R)-2-isopropyl-N-(4-methoxyphenyl)-5-methylcyclohexane-1-carboxamide], the “Percent Loss in WS-12 Concentration After Storage in Polyolefin Container for 2 Weeks at 40° C.” value (“Percent Loss” below) ([1]; High Density Polyethylene (HDPE)) was 1.3%, the “Percent Loss” value ([1]; Low Density Polyethylene (LDPE 1)) was 2.8% and the “Percent Loss” value ([1]; Low Density Polyethylene (LDPE 2)) was 2.8%. The “Percent Loss” value ([1]; Low Density Polyethylene (LDPE 3)) was 3.3%, the “Percent Loss” value ([1]; Low Density Polyethylene (LDPE 4)) was 4.0% and the “Percent Loss” value ([1]; Low Density Polyethylene (LDPE 5)) was 4.5%. The “Percent Loss” value ([1]; Polypropylene (PP)) was 1.3%, the “Solubility in avocado oil” value ([2]; avocado oil) was “sparingly soluble” and the Solubility in ethanol ([2]; ethanol) was “sparingly soluble”. The Solubility in water ([2]; water) was “insoluble”, the “Content of WS-12 in the BFS units” value [3] was “constant” and the Chemical stability [4] was “chemically stable”. The WS-12 level dissolved ([5]; KOLLIPHOR EL 3% w/v) was ≥ 200 µM, the “Effect on WS-12 solubility” value ([5]; TWEEN 80, required concentration greater than 4%) was “significantly increased” and the solubility ([5]; aqueous medium with solubilizer, aqueous with cosolvent or surfactant or cyclodextrin, thermodynamic from solid, KOLLIDON 30 (polyvinylpyrrolidone), read-out: WS-12 level solubilized) was < 200 µM. For the same compound, the solubility ([5]; aqueous ophthalmic composition, 2 °C, aqueous with cosolvent or surfactant or cyclodextrin, thermodynamic from solid, in 3% KOLLIPHOR EL, 0.14% hypromellose, 0.78% Na dihydrogen phosphate dihydrate, 0.55% NaCl, pH 7, 2°-8° C., read-out: WS-12 Solubility (mg/mL) 2°-8° C.) was 0.041 mg/mL, the solubility ([5]; aqueous ophthalmic composition, aqueous with cosolvent or surfactant or cyclodextrin, thermodynamic from solid, in 3% KOLLIPHOR EL, 0.14% hypromellose, 0.78% Na dihydrogen phosphate dihydrate, 0.55% NaCl, pH 7, about 17° C., read-out: WS-12 Solubility (mg/mL) Room Temp (about 17° C.)) was 0.055 mg/mL and the solubility ([5]; propylene glycol, read-out: WS-12 level solubilized) was < 200 µM. For the same compound, the solubility ([5]; tyloxapol, read-out: WS-12 level solubilized) was < 200 µM.

Reference: patent US12336971B2, “Ophthalmic pharmaceutical compositions and uses thereof” (ALCON INC., priority 2021, dated 2025)
